According to patent US8685977B2, “Chemical compounds” (Pfizer Limited, priority 2010, dated 2014):
pIC50: −log10 of the molar value.

target: T1, Nav1.7 (or SCN9A) channel (Homo sapiens, UniProt Q15858); experiment: Nav1.7 PatchXpress 7000 automated electrophysiology assay (HEK cells stably expressing hSCN9A); type: cell-based; details: voltage-clamped at V1/2 of inactivation, read-out: Nav1.7 EIC50
T1 construct: expressed in transfected cells
Procedure, shortened: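 Automated whole-cell clamp (PatchXpress) of HEK cells stably expressing hSCN9A, at 22-24 °C, in extracellular buffer at pH 7.4. Cells were held at the measured V1/2 of inactivation, then stepped to 0 mV for 20 ms. Single-concentration % inhibition gave EIC50 = concentration × (100 − %inhibition)/%inhibition, excluding <20% or >80%.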

T1 sequence (Q15858 whole entry): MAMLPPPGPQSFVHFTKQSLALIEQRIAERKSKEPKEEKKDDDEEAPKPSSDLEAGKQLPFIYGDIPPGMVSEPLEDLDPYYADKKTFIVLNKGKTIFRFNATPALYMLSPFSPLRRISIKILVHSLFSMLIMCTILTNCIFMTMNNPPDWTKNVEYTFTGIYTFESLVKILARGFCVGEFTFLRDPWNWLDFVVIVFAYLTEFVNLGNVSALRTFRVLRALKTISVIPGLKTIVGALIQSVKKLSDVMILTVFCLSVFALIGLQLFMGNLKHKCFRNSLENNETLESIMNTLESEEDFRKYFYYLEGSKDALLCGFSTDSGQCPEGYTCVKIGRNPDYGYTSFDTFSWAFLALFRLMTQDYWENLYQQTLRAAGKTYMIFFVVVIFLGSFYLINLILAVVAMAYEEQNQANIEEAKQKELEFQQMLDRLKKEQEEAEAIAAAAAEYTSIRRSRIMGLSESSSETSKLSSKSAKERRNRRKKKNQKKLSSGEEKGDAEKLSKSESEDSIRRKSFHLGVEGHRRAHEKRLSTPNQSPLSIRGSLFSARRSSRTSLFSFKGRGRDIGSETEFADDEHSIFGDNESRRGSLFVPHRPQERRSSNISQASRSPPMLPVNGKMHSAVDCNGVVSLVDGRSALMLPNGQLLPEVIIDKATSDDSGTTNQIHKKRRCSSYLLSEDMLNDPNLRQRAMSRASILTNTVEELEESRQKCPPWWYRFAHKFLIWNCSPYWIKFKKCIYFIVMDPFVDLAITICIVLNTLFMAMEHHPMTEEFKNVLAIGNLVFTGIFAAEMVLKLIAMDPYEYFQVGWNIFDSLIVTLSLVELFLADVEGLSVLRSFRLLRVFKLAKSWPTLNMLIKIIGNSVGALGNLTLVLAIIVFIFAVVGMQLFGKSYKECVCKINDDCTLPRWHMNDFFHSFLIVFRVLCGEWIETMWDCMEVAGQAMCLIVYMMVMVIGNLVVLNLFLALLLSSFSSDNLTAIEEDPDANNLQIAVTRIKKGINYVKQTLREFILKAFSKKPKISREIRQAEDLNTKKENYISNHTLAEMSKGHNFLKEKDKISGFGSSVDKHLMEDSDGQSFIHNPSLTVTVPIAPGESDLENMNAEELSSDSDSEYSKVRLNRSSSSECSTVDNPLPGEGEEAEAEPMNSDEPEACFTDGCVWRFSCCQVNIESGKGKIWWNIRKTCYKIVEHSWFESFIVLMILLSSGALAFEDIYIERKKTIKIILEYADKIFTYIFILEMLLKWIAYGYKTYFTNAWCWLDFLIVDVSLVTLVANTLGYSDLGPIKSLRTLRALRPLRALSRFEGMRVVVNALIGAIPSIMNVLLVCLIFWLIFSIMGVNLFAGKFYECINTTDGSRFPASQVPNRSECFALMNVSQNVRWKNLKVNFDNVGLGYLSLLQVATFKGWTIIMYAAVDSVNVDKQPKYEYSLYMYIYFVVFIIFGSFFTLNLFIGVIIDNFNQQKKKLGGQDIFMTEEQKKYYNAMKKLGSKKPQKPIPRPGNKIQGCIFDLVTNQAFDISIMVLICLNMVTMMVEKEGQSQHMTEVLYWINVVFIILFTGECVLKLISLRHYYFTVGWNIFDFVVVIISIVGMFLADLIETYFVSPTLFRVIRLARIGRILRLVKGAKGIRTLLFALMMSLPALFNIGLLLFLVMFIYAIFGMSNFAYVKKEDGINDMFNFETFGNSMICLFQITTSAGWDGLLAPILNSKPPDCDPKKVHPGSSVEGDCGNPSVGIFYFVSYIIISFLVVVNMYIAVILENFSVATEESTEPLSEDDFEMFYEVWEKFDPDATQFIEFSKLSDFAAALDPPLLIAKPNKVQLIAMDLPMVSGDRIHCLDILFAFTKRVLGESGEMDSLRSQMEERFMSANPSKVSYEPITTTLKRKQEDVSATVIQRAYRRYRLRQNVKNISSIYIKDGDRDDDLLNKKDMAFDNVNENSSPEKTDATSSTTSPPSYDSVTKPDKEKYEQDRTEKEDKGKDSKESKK

Row | SMILES | pIC50
1 | Cc1ccccc1Oc1cc(F)c(C(=O)NS(C)(=O)=O)cc1Cl [Example 297, 5-chloro-2-fluoro-4-(2-methylphenoxy)-N-(methylsulfonyl)benzamide] | 5.64
2 | CS(=O)(=O)NC(=O)c1cc(F)c(Oc2cc(F)cc(F)c2)cc1F [Example 128, 4-(3,5-difluorophenoxy)-2,5-difluoro-N-(methylsulfonyl)benzamide] | 4.96
3 | CS(=O)(=O)NC(=O)c1cc(F)c(Oc2cc(Cl)ccc2Cl)cc1F [Example 105, 4-(2,5-dichlorophenoxy)-2,5-difluoro-N-(methylsulfonyl)benzamide] | < 5.52
4 | COc1cc(Oc2ccc(Cl)c(C(F)(F)F)c2)c(F)cc1C(=O)NS(C)(=O)=O [Example 60, 4-[4-chloro-3-(trifluoromethyl)phenoxy]-5-fluoro-2-methoxy-N-(methylsulfonyl)benzamide] | 4.48
5 | Cc1cc(C(=O)NS(C)(=O)=O)ccc1Oc1ccc(Cl)c(Cl)c1 [Example 81, 4-(3,4-dichlorophenoxy)-3-methyl-N-(methylsulfonyl)benzamide] | 6.64
6 | Cc1cccc(C)c1Oc1ccc(C(=O)NS(C)(=O)=O)cc1 [Example 193, 4-(2,6-dimethylphenoxy)-N-(methylsulfonyl)benzamide] | < 5.00
7 | CCc1cccc(Oc2cc(F)c(C(=O)NS(C)(=O)=O)cc2F)c1 [Example 147, 4-(3-ethylphenoxy)-2,5-difluoro-N-(methylsulfonyl)benzamide] | < 5.52
8 | Cc1ccccc1Oc1cc(F)c(C(=O)NS(C)(=O)=O)cc1F [Example 111, 2,5-difluoro-4-(2-methylphenoxy)-N-(methylsulfonyl)benzamide] | < 5.52
9 | COc1ccc(Oc2ccc(C(=O)NS(C)(=O)=O)cc2Cl)cc1 [Example 257, 3-chloro-4-(4-methoxyphenoxy)-N-(methylsulfonyl)benzamide] | 5.96
10 | COc1cccc(Oc2ccc(C(=O)NS(C)(=O)=O)cc2Cl)c1 [Example 255, 3-chloro-4-(3-methoxyphenoxy)-N-(methylsulfonyl)benzamide] | 5.85
11 | COc1ccccc1Sc1ccc(C(=O)NS(C)(=O)=O)cc1 [Example 324, 4-(2-methoxyphenylthio)-N-(methylsulfonyl)benzamide] | < 5.52
12 | CS(=O)(=O)NC(=O)c1ccc(Oc2ccc(C#N)cc2)c(Cl)c1 [Example 270, 3-chloro-4-(4-cyanophenoxy)-N-(methylsulfonyl)benzamide] | 5.43
13 | CS(=O)(=O)NC(=O)c1ccc(Oc2cccc3ccccc23)c(C#N)c1 [Example 283, 3-cyano-N-(methylsulfonyl)-4-(1-naphthyloxy)benzamide] | 5.07
14 | CS(=O)(=O)NC(=O)c1cc(F)c(Oc2cccc(C(F)(F)F)c2)cc1F [Example 138, 2,5-difluoro-N-(methylsulfonyl)-4-[3-(trifluoromethyl)phenoxy]benzamide] | 5.18
15 | COc1cc(Oc2ccc(Cl)c(F)c2)ccc1C(=O)NS(C)(=O)=O [Example 228, 4-(4-chloro-3-fluorophenoxy)-2-methoxy-N-(methylsulfonyl)benzamide] | 5.27
16 | Cc1cccc(Oc2ccc(C(=O)NS(C)(=O)=O)cc2)c1 [Example 254, 4-(3-methylphenoxy)-N-(methylsulfonyl)benzamide] | 5.12
17 | CS(=O)(=O)NC(=O)c1cc(F)c(Oc2ccc(Cl)c(C(F)(F)F)c2)cc1Cl [Example 77, 2-chloro-4-(4-chloro-3-(trifluoromethyl)phenoxy)-5-fluoro-N-(methylsulfonyl)benzamide] | 6.28
18 | CS(=O)(=O)NC(=O)c1cc(F)c(Oc2ccc(Cl)c(OC(F)(F)F)c2)cc1F [Example 56, 4-(4-chloro-3-(trifluoromethoxy)phenoxy)-2,5-difluoro-N-(methylsulfonyl)benzamide] | 6.70

Row | SMILES | pIC50
19 | CS(=O)(=O)NC(=O)c1ccc(Oc2ccc(C(F)(F)F)cc2-c2ccnnc2)cc1 [Example 50, N-(methylsulfonyl)-4-(2-(pyridazin-4-yl)-4-(trifluoromethyl)phenoxy)benzamide] | < 5.52
20 | CCOc1cccc(Oc2ccc(C(=O)NS(C)(=O)=O)cc2C#N)c1 [Example 281, 3-cyano-4-(3-ethoxyphenoxy)-N-(methylsulfonyl)benzamide] | 5.37
21 | Cc1cc(C(=O)NS(C)(=O)=O)ccc1Oc1ccc(Cl)cc1 [Example 240, 4-(4-chlorophenoxy)-3-methyl-N-(methylsulfonyl)benzamide] | 6.20
22 | CC(C)c1cccc(Oc2ccc(C(=O)NS(C)(=O)=O)cc2)c1 [Example 181, 4-(3-isopropylphenoxy)-N-(methylsulfonyl)benzamide] | 5.80
23 | CS(=O)(=O)NC(=O)c1ccc(Oc2ccc(Cl)c(Cl)c2)cc1 [Example 182, 4-(3,4-dichlorophenoxy)-N-(methylsulfonyl)benzamide] | 5.85
24 | Cn1nc(C(F)(F)F)cc1-c1ccc(Oc2ccc(C(=O)NS(C)(=O)=O)cc2)cc1 [Example 312, N-(methylsulfonyl)-4-{4-[1-methyl-3-(trifluoromethyl)-1H-pyrazol-5-yl]phenoxy}benzamide] | 5.48
25 | Cn1nccc1-c1cc(Cl)ccc1Oc1ccc(C(=O)NS(C)(=O)=O)cc1C#N [Example 303, 4-[4-chloro-2-(1-methyl-1H-pyrazol-5-yl)phenoxy]-3-cyano-N-(methylsulfonyl)benzamide] | < 5.52
26 | CS(=O)(=O)NC(=O)c1ccc(Oc2ccc(Cl)c(C(F)(F)F)c2)cc1 [Example 15, 4-[4-chloro-3-(trifluoromethyl)phenoxy]-N-(methylsulfonyl)benzamide] | 6.03
27 | CS(=O)(=O)NC(=O)c1cc(Cl)c(Oc2cccc(Cl)c2)cc1F [Example 292, 5-chloro-4-(3-chlorophenoxy)-2-fluoro-N-(methylsulfonyl)benzamide] | 6.21
28 | Cc1ccc(Oc2ccc(C(=O)NS(C)(=O)=O)cc2Cl)cc1 [Example 215, 3-chloro-4-(4-methylphenoxy)-N-(methylsulfonyl)benzamide] | 5.89
29 | O=C(NS(=O)(=O)C1CC1)c1ccc(Oc2ccc(Cl)c(C(F)(F)F)c2)cc1 [Example 1, 4-[4-Chloro-3-(trifluoromethyl)phenoxy]-N-(cyclopropylsulfonyl)benzamide] | 6.09
30 | CS(=O)(=O)NC(=O)c1ccc(Oc2ccc(Cl)c(Cl)c2)c(F)c1 [Example 34, 4-(3,4-dichlorophenoxy)-3-fluoro-N-(methylsulfonyl)benzamide] | 5.82
31 | CS(=O)(=O)NC(=O)c1ccc(Oc2cccc(F)c2)c(C#N)c1 [Example 284, 3-cyano-4-(3-fluorophenoxy)-N-(methylsulfonyl)benzamide] | 5.06
32 | CS(=O)(=O)NC(=O)c1cc(F)c(Oc2ccc(Cl)c(Cl)c2)cc1F [Example 21, 4-(3,4-dichlorophenoxy)-2,5-difluoro-N-(methylsulfonyl)benzamide] | 6.35
33 | CS(=O)(=O)NC(=O)c1cc(Cl)c(Oc2ccc(F)cc2)cc1F [Example 296, 5-chloro-2-fluoro-4-(4-fluorophenoxy)-N-(methylsulfonyl)benzamide] | 6.41
34 | COc1cc(Cl)ccc1Oc1cc(F)c(C(=O)NS(C)(=O)=O)cc1Cl [Example 52, 5-chloro-4-(4-chloro-2-methoxyphenoxy)-2-fluoro-N-(methylsulfonyl)benzamide] | 6.33
35 | CS(=O)(=O)NC(=O)c1cc(F)c(Oc2ccc(Cl)c(OC(F)F)c2)cc1F [Example 49, 4-[4-chloro-3-(difluoromethoxy)phenoxy]-2,5-difluoro-N-(methylsulfonyl)benzamide] | 6.28

target: T1, Nav1.7 (or SCN9A) channel; experiment: Nav1.7 Ionworks Quattro automated electrophysiology assay (HEK cells expressing hSCN9A); type: cell-based; details: Ionworks assay (IW), read-out: Nav1.7 EIC50 (IW)
Method: The ability of the compounds of formula (I) to block the Nav1.7 (or SCN9A) channel was measured using the assays described below. Human Embryonic Kidney (HEK) cells were transfected with an hSCN9A construct using lipofectamine reagent (Invitrogen), using standard techniques. Cells stably expressing the hSCN9A constructs were identified by their resistance to G-418 (400 μg/ml). Clones were screened for expression using the whole-cell voltage-clamp technique. HEK cells stably transfected with hSCN9A were maintained in DMEM medium supplemented with 10% heat-inactivated fetal bovine serum and 400 μg/ml G-418 in an incubator at 37° C. with a humidified atmosphere of 10% CO2. For HTS, cells were harvested from flasks by trypsinization and replated in an appropriate multi-well plate (typically 96 or 384 wells/plate) such that confluence would be achieved within 24 hours of plating. For electrophysiological studies, cells were removed from the culture flask by brief trypsinization and re-plated at low density onto glass cover slips. Cells were typically used for electrophysiological experiments within 24 to 72 hours after plating. Electrophysiological assays were also conducted using the lonworks Quattro automated electrophysiological platform (Molecular Devices Corp). Intracellular and extracellular solutions were as described above with the following changes, 100 μg/ml amphotericin was added to the intracellular solution to perforate the membrane and allow electrical access to the cells. hSCN9A cells were grown and harvested as for PatchXpress and cells were resuspended in extracellular solution at a concentration of 3−4×10^6 cells/ml. The onboard liquid handling facility of the lonworks Quattro was used for dispensing cells and application of test compounds. A voltage protocol was then applied that comprised of a voltage step to fully inactivate the sodium channels, followed by a brief hyperpolarized recovery period to allow partial recovery from inactivation for unblocked sodium channels, followed by a test depolarized voltage step to assess magnitude of inhibition by test compound. Compound effect was determined based on current amplitude difference between the pre-compound addition and post-compound addition scans. Compounds of the Examples were tested in the assays described above and found to have the Nav1.7 EIC50 (μM) values specified in the table below. All data are derived from the PatchXpress assay unless explicitly stated otherwise.

Row | SMILES | pIC50
36 | CS(=O)(=O)NC(=O)c1ccc(Oc2cc(C(F)(F)F)ccc2Cl)cc1 [Example 207, 4-[2-chloro-5-(trifluoromethyl)phenoxy]-N-(methylsulfonyl)benzamide] | 4.86
37 | CS(=O)(=O)NC(=O)c1cc(F)c(Oc2ccccc2C#N)cc1F [Example 327, 4-(2-cyanophenoxy)-2,5-difluoro-N-(methylsulfonyl)benzamide] | < 3.49
38 | CS(=O)(=O)NC(=O)c1ccc(Oc2ccccc2C#N)cc1 [Example 211, 4-(2-cyanophenoxy)-N-(methylsulfonyl)benzamide] | 4.17
39 | CS(=O)(=O)NC(=O)c1ccc(Oc2ccc(F)c(C(F)(F)F)c2)cc1 [Example 208, 4-[4-fluoro-3-(trifluoromethyl)phenoxy]-N-(methylsulfonyl)benzamide] | 4.73
